Experimental data as given in patent publication US20090106856A1, “Selection System for Wheat” (BASF PLANT SCIENCE GMBH, priority 2005, published 2009).

What was measured:
wheat callus = assay: Killing curve: callus growth and regeneration under constant selection pressure; format: cell-based, Triticum aestivum
Method: To define the sensitivity of wheat tissues during transformation when D-Serine and D-Alanine are present as selection agents regeneration experiments with immature embryos were designed. Immature embryos were immersed in PAWinf medium and subjected to all steps of callus induction, callus maintaining and regeneration in transformation protocol above.
Sensitivity of callus tissue under constant selection pressure were evaluated using range of concentrations: 0.5 mM, 1 mM, 3 mM, 5 mM, 10 mM, 25 mM, 50 mM. Experiments were performed in triplicates. Percentage of embryos forming embryos-genic callus was scored on PAW-4 regeneration medium. At the end of shoots elongation regeneration capacity of the calluses was scored as calluses regenerating shoots and number of shoots per callus.
Range of the tested concentrations 0.5-50 mM D-ser and D-ala are evaluated in replicating regeneration experiments. The effect of selective compounds is estimated during callus growth and shoots formation following transformation procedure on medium with D-serine and D-alanine (Table 4).

[1] = tested on: non-transgenic wheat plants; assay: D-serine as a nitrogen source in hydroponics; format: in vivo, Triticum aestivum
Method: T1 and T2 transgenic progenies were grown on hydroponics system where hydroponics solution (Gamborg and Wetter, 1975) was modified by replacing nitrogen with D-serine in five different concentrations (20, 30, 50 70 and 100 mM). Transgenic progenies and control seedlings were grown also on standard hydroponics solution as controls. The dry weigh of all 14 days old seedlings was measured.
Catabolic products of D-serine deaminase are ammonium and pyruvate—key compounds in plant metabolism. Theoretically, transgenic plants equipped with a functional dsdA gene are expected to utilize D-serine as a nitrogen source. We investigated this phenomenon in a hydroponic growth system by exchanging the nitrogen supply with D-serine. T2 progenies representing several independent transgenic events were subjected to two sets of hydroponic experiments.
The first hydroponics experiments were performed with plants from three independent transgenic lines 2256, 2258 and 2264 carrying the dsdA and ahas selectable marker genes and a range of D-serine concentrations (FIG. 15 I). […] Statistically significant differences between controls and transgenic plants on corresponding concentrations of D-serine were detected. Two of these transgenic lines were inhibited in all tested D-serine concentrations. […]

[2] = tested on: wheat variety Canon immature embryos / embryogenic callus; assay: Agrobacterium-mediated transformation with dsdA constructs and selection of transgenic plants; format: cell-based, Triticum aestivum
Method: Explants were washed with PAW-Inf. medium and immersed in the above-described bacterial suspension for 2 h at 26° C. At the end of infection the explants were placed with scutellum side up on PAW-1 medium. The residual bacterial suspension is removed by pipeting out and air-drying of the infected embryos by opening plates for 15 min on the sterile banch. Plates were sealed with Parafilm and placed in thermostat at 26° C. in the dark for 5-6 days co-cultivation.
After co-cultivation period the explants were washed with sterile water and 500 mg/L Cefotaxime and filter paper dried before being transferred to PAW-2 callus induction-recovery medium containing 160 mg/l Timentin for 14 days (7 days dark/7 days semi light; 13.2 μmol m^−2s^−1). Explants with embryogenic callus were subculture to PAW-2 callus-proliferation medium containing 160 mg/l Timentin and corresponding selection 5 mM D-serine or 5 mM D-alanine or 3 mg/l bialaphos. In some experiments the selection on D-amino acids was starting on PAW-2 callus induction medium 0, 7, 14 and 21 days after co cultivation. Embryogenic callus was subculture twice on fresh selective medium for callus maintaining and regeneration on PAW-4 medium with corresponding selection. Cultures were maintained at 23° C. on light 60.2 μmol m^−2s^−1. Regenerated shoots were subculture to PAW-5 hormone free medium with corresponding selection (5 mM D-serine or 5 mM D-alanine or 3 mg/l bialaphos) for further growth and rooting. All media used in the transformation experiments were filter sterilized and are listed in above. After analyses transgenic plants were transferred to soil and placed for further growth in greenhouse. 1.4 Molecular and expression studies of the transgenic plants
Freshly isolated immature embryos from Canon were inoculated with Agrobacterium. In all experiments Agrobacterium tumefacience LBA4404 (pSB1/pRLM167) (SEQ ID NO: 11) was used. The pRLM167 is a super binary vector containing p-ZmUBI+I::c-dsdA::t-OCS and p-ZmUBI+I::c-PAT::t-OCS selectable marker genes in expression cassettes (FIG. 1). Following co cultivation the explants were given a chance to recover for 14 days on callus induction selection free medium containing 160 mg/l Timentin to inhibit bacterial growth. Under these conditions 59% to 76% of the embryogenic callus developed over the all surface of immature embryos. Embryogenic callus was split in two and transferred to two the corresponding selection medium containing 5-mM D-serine or 3 mg/l bialaphos. During subsequent growth of callus, regeneration of plantlets, shoots elongation and roots formation the respective selection pressure was maintained in each of the corresponding medium. After 7 weeks of selection 38%-47% of the embryogenic calli regenerated with plants when selected on bialaphos or on D-serine respectively. Further selection of the regenerants was performed during the elongation and rooting of the regenerants for an additional 3 weeks. Intact in vitro transgenic shoots were selected within 10-12 weeks after co cultivation.
Freshly isolated immature embryos from Canon were inoculated with Agrobacterium. In all experiments Agrobacterium tumefacience super binary vector system based on LBA4404 (pSB1) was used. The constructs pRLM179, pRLM166, pRLM151 (FIG. 2. I, II and III) containing dsdA selectable marker gene alone or with a second gene (ahas or gusINT) were used for transformation. The explants were cultured on selection medium right away after co-cultivation with Agrobacterium or were cultivated on callus induction—recovery medium for 7, 14 and 21 days containing only 160 mg/l Timentin for inhibiting bacterial growth. Furthermore calli were sub cultured to fresh selection PAW-2 medium for proliferation. Embryogenic calli were transferred on PAW-4 selection medium for regeneration 5-6 weeks after transformation. The emerging plantlets were further grown and rooted on PAW-5 hormone free selection medium. […]

[3] = construct pRLM167 (dsdA/pat), selection on 5 mM D-serine or 3 mg/l bialaphos
[4] = pRLM179 (dsdA/AHAS), 3 mM, selection started 21 days after co-cultivation
[5] = pRLM179 (dsdA/AHAS), 5 mM, selection started 21 days after co-cultivation
[6] = pRLM179 (dsdA/AHAS), 10 mM, selection started 21 days after co-cultivation

N[C@H](CO)C(=O)O [D-serine]
regeneration capacity of the calli measured as number of regenerants per callus line (wheat callus; 0.5 mM): clear increase
number of calli regenerating plants reduced (wheat callus; 3 mM): 50%
Regeneration capacity of the calli reduced (wheat callus; 5 mM): 70%
Regenerated Embryogenic Lines (%) (wheat callus; Bobwhite, 0.5 mM): 83%
Regenerated Embryogenic Lines (%) (wheat callus; Bobwhite, 3 mM): 57%
Regenerated Embryogenic Lines (%) (wheat callus; Bobwhite, 5 mM): 32.5%
Regenerated Embryogenic Lines (%) (wheat callus; Bobwhite, 10 mM): 10%
Regenerated Embryogenic Lines (%) (wheat callus; Bobwhite, 15 mM): 6%
Regenerated Embryogenic Lines (%) (wheat callus; Bobwhite, 25 mM): 0%
Regenerated Embryogenic Lines (%) (wheat callus; Bobwhite, 50 mM): 0%
Regenerated Embryogenic Lines (%) (wheat callus; Canon, 0.5 mM): 84%
Regenerated Embryogenic Lines (%) (wheat callus; Canon, 3 mM): 56%
Regenerated Embryogenic Lines (%) (wheat callus; Canon, 5 mM): 23%
Regenerated Embryogenic Lines (%) (wheat callus; Canon, 10 mM): 6%
Regenerated Embryogenic Lines (%) (wheat callus; Canon, 15 mM): 3%
Regenerated Embryogenic Lines (%) (wheat callus; Canon, 25 mM): 0%
Regenerated Embryogenic Lines (%) (wheat callus; Canon, 50 mM): 0%
lethal dose (LD 100) for regeneration response of callus (wheat callus; tested in both varieties): 25 mM
growth of non-transgenic control plants in hydroponics ([1]; hydroponics solution supplemented with 30, 50 and 70 mM): not able to grow
growth of non-transgenic plants in hydroponics ([1]; nitrogen replaced by D-serine, all tested concentrations (20, 30, 50, 70 and 100 mM)): fully inhibited
ER Escape Rate (% of non-transgenic regenerants out of all selected plants) [2, 3]: 17%
TE Transformation Efficiency (% of transgenic plants out of the explants) [2, 3]: 2.1%
Average transformation efficiencies for both constructs ([2]; dsdA constructs with ahas or gusINT, selection on D-serine): about 1%
TE (%) Transformation Efficiency ([2]; pRLM166, 5 mM, start of selection 21 days): 0.69%
ER (%) Escapes Rate [2, 4]: 100%
TE (%) Transformation Efficiency [2, 4]: 0%
ER (%) Escapes Rate [2, 5]: 25%
TE (%) Transformation Efficiency [2, 5]: 1.39%
ER (%) Escapes Rate [2, 6]: 0%
TE (%) Transformation Efficiency [2, 6]: 0.77%
